Assay results published in ChEMBL document CHEMBL4715740, “Synthesis, anti-inflammatory, analgesic, COX-1/2 inhibitory activities and molecular docking studies of substituted 2-mercapto-4(3H)-quinazolinones” (Eur J Med Chem, 2016).

Key:
[1] = biological target: T1, Prostaglandin G/H synthase 1 (Ovis aries, UniProt P05979); test: Inhibition of ovine COX1 assessed as reduction in PGF2alpha production using arachidonic acid as substrate preincubated with enzyme for 5 mins followed by substrate addition and measured after 2 mins by colorimetric analysis
T1 sequence (P05979 whole entry): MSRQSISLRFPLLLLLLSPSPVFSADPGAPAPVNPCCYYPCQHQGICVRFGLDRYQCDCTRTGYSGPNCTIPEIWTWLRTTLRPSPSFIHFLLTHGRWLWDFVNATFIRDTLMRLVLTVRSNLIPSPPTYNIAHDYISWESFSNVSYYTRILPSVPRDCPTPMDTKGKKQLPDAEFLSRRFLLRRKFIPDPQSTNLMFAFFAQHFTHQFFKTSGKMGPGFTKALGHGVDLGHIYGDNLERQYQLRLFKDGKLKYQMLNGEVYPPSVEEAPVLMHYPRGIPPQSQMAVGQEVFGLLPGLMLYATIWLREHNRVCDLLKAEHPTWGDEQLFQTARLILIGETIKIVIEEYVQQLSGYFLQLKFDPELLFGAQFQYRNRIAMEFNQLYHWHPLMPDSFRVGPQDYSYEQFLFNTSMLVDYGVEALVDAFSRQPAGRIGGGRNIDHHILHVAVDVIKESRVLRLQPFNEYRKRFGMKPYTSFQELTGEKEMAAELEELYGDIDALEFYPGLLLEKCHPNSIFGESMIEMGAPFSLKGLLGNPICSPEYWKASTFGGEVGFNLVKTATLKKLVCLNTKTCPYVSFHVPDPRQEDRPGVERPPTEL

[2] = tested on: Mus musculus; test: Analgesic activity in Swiss albino mouse administered ip and measured after 60 mins by hot plate method; type: functional; details: 1 h
[3] = tested on: Rattus norvegicus; test: Antiinflammatory activity against Sprague-Dawley rat assessed as reduction in carragenan-induced paw edema administered ip and measured after 2 hrs by plethysmometry; type: functional

O=c1c2ccccc2nc(S)n1CCc1ccccn1
IC50 [1]: > 100 µM

CCOC(=O)CSc1nc2ccccc2c(=O)n1CCc1ccccn1
ED50 [2]: > 200 mg/kg
ED50 [3]: > 200 mg/kg

NNC(=O)CSc1nc2ccccc2c(=O)n1CCc1ccccn1
IC50 [1]: > 100 µM

CC(C)c1ccc(CSc2nc3ccccc3c(=O)n2CCc2ccccn2)cc1
ED50 [2]: > 200 mg/kg
ED50 [3]: > 200 mg/kg

N#CCSc1nc2ccccc2c(=O)n1CCc1ccccn1
ED50 [2]: > 200 mg/kg
ED50 [3]: > 200 mg/kg

CCn1c(S)nnc1CSc1nc2ccccc2c(=O)n1CCc1ccccn1
ED50 [2]: 71.4 mg/kg
ED50 [3]: 91.9 mg/kg
IC50 [1]: > 100 µM

CCNC(=S)NNC(=O)CSc1nc2ccccc2c(=O)n1CCc1ccccn1
ED50 [2]: 33.3 mg/kg
ED50 [3]: 70.5 mg/kg
IC50 [1]: > 100 µM

O=C1c2ccccc2C(=O)N1CCCSc1nc2ccccc2c(=O)n1CCc1ccccn1
ED50 [2]: > 200 mg/kg
ED50 [3]: > 200 mg/kg

COc1ccc(C(=O)NNC(=O)CSc2nc3ccccc3c(=O)n2CCc2ccccn2)cc1
ED50 [2]: 101 mg/kg
ED50 [3]: 101 mg/kg
IC50 [1]: > 100 µM

O=c1c2ccccc2nc(SCc2ccc(Cl)cc2)n1CCc1ccccn1
ED50 [2]: 99.2 mg/kg
ED50 [3]: 65.7 mg/kg
IC50 [1]: > 100 µM

CCNc1nnc(CSc2nc3ccccc3c(=O)n2CCc2ccccn2)s1
ED50 [2]: > 200 mg/kg
ED50 [3]: > 200 mg/kg

O=C(CSc1nc2ccccc2c(=O)n1CCc1ccccn1)NNC(=O)c1ccccc1
ED50 [2]: 86.1 mg/kg
ED50 [3]: 90.1 mg/kg
IC50 [1]: > 100 µM

O=c1c2ccccc2nc(SCCN2CCOCC2)n1CCc1ccccn1
ED50 [2]: > 200 mg/kg
ED50 [3]: > 200 mg/kg

CCC(=O)NNC(=O)CSc1nc2ccccc2c(=O)n1CCc1ccccn1
ED50 [2]: 95.5 mg/kg
ED50 [3]: 83.3 mg/kg
IC50 [1]: > 100 µM

COc1ccc(NC(=S)NNC(=O)CSc2nc3ccccc3c(=O)n2CCc2ccccn2)cc1
ED50 [2]: > 200 mg/kg
ED50 [3]: > 200 mg/kg

O=C(CSc1nc2ccccc2c(=O)n1CCc1ccccn1)NNC(=S)NCc1ccccc1
ED50 [2]: 47.4 mg/kg
ED50 [3]: > 200 mg/kg

O=c1c2ccccc2nc(SCc2nnc(S)n2-c2ccccc2)n1CCc1ccccn1
ED50 [2]: > 200 mg/kg
ED50 [3]: > 200 mg/kg

O=c1c2ccccc2nc(SCc2nnc(Nc3ccccc3)s2)n1CCc1ccccn1
ED50 [2]: > 200 mg/kg
ED50 [3]: > 200 mg/kg

O=c1c2ccccc2nc(SCc2nnc(NCc3ccccc3)s2)n1CCc1ccccn1
ED50 [2]: > 200 mg/kg
ED50 [3]: > 200 mg/kg

CSc1nc2ccccc2c(=O)n1CCc1ccccn1
ED50 [2]: > 200 mg/kg
ED50 [3]: > 200 mg/kg

O=C(CSc1nc2ccccc2c(=O)n1CCc1ccccn1)NNC(=S)Nc1ccccc1
ED50 [2]: > 200 mg/kg
ED50 [3]: > 200 mg/kg

COc1ccc(Nc2nnc(CSc3nc4ccccc4c(=O)n3CCc3ccccn3)s2)cc1
ED50 [2]: > 200 mg/kg
ED50 [3]: > 200 mg/kg

CCSc1nc2ccccc2c(=O)n1CCc1ccccn1
ED50 [2]: 105 mg/kg
ED50 [3]: 74.5 mg/kg
IC50 [1]: > 100 µM

O=C(CSc1nc2ccccc2c(=O)n1CCc1ccccn1)NNC(=O)c1ccc(Cl)cc1
ED50 [2]: > 200 mg/kg
ED50 [3]: > 200 mg/kg

O=c1c2ccccc2nc(SCc2ccccc2)n1CCc1ccccn1
ED50 [2]: > 200 mg/kg
ED50 [3]: > 200 mg/kg

O=c1c2ccccc2nc(SCc2nnc(S)n2Cc2ccccc2)n1CCc1ccccn1
ED50 [2]: > 200 mg/kg
ED50 [3]: > 200 mg/kg

Cc1ccc(-c2cc(C(F)(F)F)nn2-c2ccc(S(N)(=O)=O)cc2)cc1 [CELECOXIB]
ED50 [2]: 71.6 mg/kg
ED50 [3]: 84.3 mg/kg
